Data on 89 compounds can be found in a melting point compilation (Tetko et al.; mined from patent text by program, amines drawn as free bases though some values may be those of a salt).

Residues, ends and D or L forms follow the SMILES beside them. *: point of attachment. Cbz = O=C(OCc1ccccc1)*; Boc = CC(C)(C)OC(=O)*

The term melting point denotes the temperature, or range, at which the solid turns liquid. `O=C1N=NC(=O)c2c1[nH]c1cc(C(F)(F)F)ccc21` gave a melting point of 291 to 293 °C.
With `O=C(Nc1ccc(C(=O)O)cc1)OCc1cn(-c2cc3cc(C(=O)O)c(=O)[nH]c3cc2C(F)(F)F)cn1`, the melting point was 218 to 220 °C.
With `CC(C)(C)OCc1cccc(-c2ccc3nc(-c4cccnc4)cn3c2)c1` the figure was 220 to 222 °C; with `Cc1c(N2CCC(N)C(C)(C)C2)c(F)cc2c(=O)c(C(=O)O)cn(C3CC3)c12` (centres undefined), 195 to 198 °C; with `CCC12CCC3C4CCCC=C4CCC3C1C=CC2=O` (centres undefined), 125 °C.
With `Oc1ccc2cc(-c3nc4ccc(O)cc4o3)ccc2c1` the figure was 288 to 290 °C; with `CN(C)CC(=O)NCc1cccc(-c2cc3c(Nc4ccc(F)c(Cl)c4)ncnc3[nH]2)c1`, 272 to 273 °C; with `C#CCn1ccc(C(=O)OC)c1C=NO`, 88 to 90 °C.
`CN1C(=O)CC[C@]2(C)c3ccc(-c4ccccc4C#N)cc3CC[C@@H]12` had a melting point of 54 to 55 °C.
With `CSC(SC)=C1C(=O)OC(C)(C)OC1=O` the figure was 114 to 118 °C; with `O[C@@H](CNCC1CCN(CCC(F)(F)F)CC1)COc1ccc(Br)c2[nH]c3ccccc3c12`, 79 °C; with `C=CCn1c(=O)n(CCC)c(=O)c2[nH]c(C34CC5CC(CC3C5)C4)nc21`, 196 to 197 °C.
The value for `FC(F)(F)c1cc(NCc2ccsc2)cc(C(F)(F)F)c1Br` was 78 to 79 °C; that for `Cn1c2ccccc2c2sccc(=O)c21` was 113 to 114 °C.
With `C[C@@H]1CN(CC=CC(=O)Nc2cc3c(Nc4ccc(F)c(Cl)c4)ncnc3cc2O[C@@H]2CCOC2)CC(=O)O1` the figure was 230 °C; with `CCOC(OCC)c1ncn(C(c2ccccc2)(c2ccccc2)c2ccccc2)n1`, 120 to 124 °C.
Turning to `CCOC(=O)c1ccc2[nH]cc(C3CCN(C)CC3)c2c1`, the melting point lay within 155 to 157 °C.
With `CC1(N2C(=O)c3cccc(NCc4ccco4)c3C2=O)CCC(=O)NC1=O` (centres undefined) the figure was 158 to 160 °C.
The compound `CCOC(=O)C1(F)C(=O)NC(=O)NC1N1CCCCC1` (centres undefined) gave a melting point of 149 to 150 °C.
With `Oc1ccc(Nc2nccc(-c3ccncc3)n2)cc1` the figure was 268 to 270 °C; with `CCOCc1nc2c(N)nc(C)c(C)c2n1Cc1cc(-c2ccc(F)cc2)no1`, 246 to 247 °C.
The value for `CCCc1c(OCC(O)CS(=O)(=O)c2ccc(CC(=O)OC)c(F)c2)ccc(C(C)=O)c1O` (centres undefined) was 118 to 119 °C; that for `COc1ccccc1C(=O)c1sc(Nc2cccnc2)nc1N` was 245 to 246 °C; that for `Cc1nc2ccc(CCc3ccccc3)cn2c1CC#N` was 139 to 141 °C.
`CCCc1c(Cl)nc(NC=O)nc1Cl` came in with a melting point of 92 to 94 °C.
The value for `C=CCn1c(=O)c2nc(-c3ccc(/C=C/C(=O)O)cc3)[nH]c2n(CC=C)c1=O` was more than 300 °C; that for `CC1(C)C(C(=O)OCC(Cl)(Cl)Cl)N2C(=O)C(NC(=O)Cc3ccccc3)C2S1=O` (centres undefined) was 166 to 168 °C.
In the case of `O=C(O)COc1cccc2c(CNS(=O)(=O)Cc3ccccc3)coc12`, the melting point was 191 to 192 °C.
With `COC(=O)C(Cc1ccc(OCCN(C)c2nc3ccccc3o2)cc1)Oc1ccc(Cl)cc1` (centres undefined) the figure was 88 to 90 °C; with `Oc1ccc2c(c1)CCCC(c1ccccc1)=C2c1ccc(OCCCCCSCc2cccs2)cc1`, 178 °C.
With `CS(=O)(=O)Oc1ccc([C@@H]2CCNC(=O)[C@H]2c2ccccc2)cc1` (relative stereo) the figure was 199 °C; with `COc1ccccc1Oc1cccc2c1NC(=O)C2SC` (centres undefined), 114 °C; with `CCC(C#N)Oc1cccc([N+](=O)[O-])c1Cl` (centres undefined), 69 to 71 °C.
The value for `COCCOc1cc(Cl)cnc1[N+](=O)[O-]` was 71.5 to 72.5 °C; that for `CCOc1ccc(-c2ccc3c(c2)C=C(C(=O)Nc2ccc(CN(C)C4CCOCC4)cc2)CCO3)cc1` was 174 to 176 °C; that for `CNC(=O)c1nc(-c2cccnc2)nc2c1[nH]c(=O)n2-c1ccccc1` was more than 330 °C.
`C#CCC1CC2C(CCC3(C)C(=O)CCC23)C2CCC(=O)C=C12` (centres undefined): the melting point lay within 186 to 188 °C.
With `CNC(=S)Nc1ccccc1CC(=O)OC` the figure was 99 to 100 °C.
In the case of `CC(=O)/C=C(\C)c1ccc(-c2ccccc2)c(Cl)c1`, the melting point fell in the range of 66 to 67 °C.
With `CCOC(=O)Cc1ccnc2c([N+](=O)[O-])cccc12` the figure was 67 to 69 °C; with `CCOP(=O)(CC(=O)NNc1nc2ccc(C(F)(F)F)cc2n(OCc2ccccc2)c1=O)OCC`, 163 to 166 °C.
Turning to `N=C(N)c1ccnc(-c2ccc(-c3ccc(-c4cc(C(=N)N)ccn4)s3)s2)c1`, the melting point was more than 300 °C.
With `CCOC(=O)C1=C(C)NC(=S)N(C(=O)OCC)C1c1ccccc1Cl` (centres undefined), the melting point was in the range of 126 to 128 °C.
Consider `COC(=O)c1cc(OCc2ccccc2)cc(C(=O)OC)c1`, for which the melting point was 94 to 95 °C.
With `O=C1C2=C(SCCO2)C(=O)N1c1ccc2cccnc2n1` the figure was 200 °C; with `CCOC(=O)C(CC(C)C)NC(=O)C(Cc1ccccc1)NC(=O)C(CCCCNC(=O)OCc1ccccc1)NC(=O)OC(C)(C)C` (stereo not drawn) (Boc-Lys(Cbz)-Phe-Leu-OEt; configuration not given here), 135 to 136 °C; with `Cn1ncnc1COc1nn2c(-c3cnccn3)nncc2c1-c1ccccc1F`, 179 to 180 °C.
Consider `c1ccc(COc2cccc(CCCn3ccnc3)c2)cc1`, for which the melting point lay within 82 to 83 °C.
With `O=S(=O)(c1ccc(Br)cc1)N1CCC1` the figure was 145 °C; with `CC(C)(C)c1cc(CCC(=O)NCCNc2c(Cl)c(Cl)nc(Cl)c2C#N)cc(C(C)(C)C)c1O`, 185 to 189 °C.
The value for `COc1c(F)cc2[nH]c(C)c(CC(=O)O)c2c1F` was 176 to 178 °C; that for `Cc1ccc(C(=O)C2=C(O)C(=O)N(c3ncc(S(=O)(=O)c4ccc([N+](=O)[O-])cc4)s3)C2c2ccc(C(=O)N(C)C)cc2)cc1` (centres undefined) was 205 °C.
The value for `O=C(O)Cc1ccc(Oc2ccc([N+](=O)[O-])cc2)cc1` was 132 to 136 °C; that for `COC(=O)c1cc2cc(OC)c(OCCCl)cc2[nH]1` was 164 to 166 °C.
In the case of `COCn1nc(N)c2cc(S(=O)(=O)C(C)C)cc(OCCc3ccccn3)c21`, the melting point was 140 to 142 °C.
The value for `CNC(=O)[C@@H](NC(=O)[C@H](CC(=O)NOCc1ccccc1)CC(C)C)C(C)(C)C` was 128 to 129 °C; that for `N#CNC(=S)Nc1ccc(F)cc1` was more than 270 °C.
Compound `Cc1ccc(C)c2c(C=O)c3ccccc3c(C=O)c12` gave a melting point of 158 to 162 °C.
Turning to `COc1ccc(C(=O)c2ccccc2[N+](=O)[O-])cn1`, the melting point lay within 94 to 95 °C.
The value for `CCCc1[nH]c2cc(C(=O)OC)ccc2c1C(=O)C1CCCCC1` was 136 to 137 °C.
The value for `CC12CCC3c4ccc(O)cc4C(=O)C(Sc4ccc(O)cc4)C3C1CCC2O` (centres undefined) was 120 to 124 °C; that for `O=c1n(-c2ccccc2)nc2c3ccccc3nc(Cl)n12` was 167 to 168 °C.
With `O=C(NCc1ccc(Cl)cc1)c1cn(Cc2cccnc2)c2sc(CN3CCOCC3)cc2c1=O` the figure was 214 to 215 °C.
As to `Nc1ccc(F)c(-c2ccncc2)c1F`, the melting point fell in the range of 190 to 192 °C.
With `Cc1nc2c(N)nc3ccc(OCc4ccccc4)cc3c2n1CCCCNC(=O)c1ccccc1` the figure was 244 to 245 °C.
`O=C(O)C1CSCCC12OCCO2` (centres undefined) yielded a melting point of 99 to 101 °C.
The compound `CCOC(=O)c1ccc(/C=C(\C)c2ccc3c(c2)CCCCO3)cc1` returned a melting point of 60 to 61 °C.
With `CCCCCCCCCCCCCCCCCCNC(=O)OC(=O)CCCCCCCCCCCCCCCCC` the figure was 84 °C; with `Cn1cc(CCl)c(-c2ccc(Cl)cc2C(=O)c2ccccc2F)n1`, 153 to 155 °C.
Turning to `CCNc1nc(-c2ccc(F)cc2C)c2ccc(=O)n(-c3c(F)cccc3F)c2n1`, the melting point lay within 195 to 196 °C.
Take `CC1(O)c2ccccc2C2=NCCCN21` (centres undefined): the melting point lay in the range of 199 to 201 °C.
The value for `c1ccc(C23CC(C2)C3)cc1` was 64 to 65 °C.
The value for `CC(C)(C)c1cc(SCN2C(=O)CC(Sc3cc(C(C)(C)C)c(O)c(C(C)(C)C)c3)C2=O)cc(C(C)(C)C)c1O` (centres undefined) was 138 to 140 °C.
The compound `CC1Oc2ccc(CCl)cc2NC1=O` (centres undefined) yielded a melting point of 162 to 169 °C.
Compound `CN1CCCCC1CCc1ccccc1NC(=O)c1ccc(C(F)(F)F)cc1` (centres undefined) registered a melting point of 150 °C.
The value for `CC(C)(C)COc1c(NCCCBr)c(=O)c1=O` was 111 to 113 °C; that for `CC(N)(C=CCP(=O)(O)O)C(=O)O` (centres undefined) was 225 to 226 °C.
The value for `CC(=O)Nc1c(C)cc(O)c(C)c1C` was 189 to 190 °C; that for `CCC(NS(=O)(=O)c1ccc(Cl)cc1)c1ccccc1` (centres undefined) was 140 to 142 °C.
`C[C@H](C#Cc1ccc(CCc2ccc(F)cc2)s1)N(O)C(N)=O` gave a melting point of 126 to 128 °C.
`CN1C(=O)CN(c2ccccc2)C1=O` registered a melting point of 168 to 170 °C.
`CCOC(=O)N(C)c1cccc(-c2ccc3nnc(C)n3n2)c1` yielded a melting point of 146 to 149 °C.
With `O=C(Nc1c[nH]nc1C(=O)NCCc1cccnc1)c1ccccn1` the figure was 267 to 268 °C; with `CCN(CC1(C(F)(F)F)c2cc(Cl)ccc2Nc2ncccc21)C(C)C` (centres undefined), 140 to 141 °C.
The value for `CCOC(=O)C1=C(C)NC(C)=C(C(=O)OCC)C1c1ccccc1S(C)=O` (centres undefined) was 232 to 233 °C.
In the case of `Cc1cccc(-c2sc(N)nc2-c2ccnc(-c3ccc(OC(F)(F)F)cc3)c2)n1`, the melting point stood at 232 °C.
With `Cc1cnc(NC(=O)c2cc(Oc3ccc(C(=O)N4CCC4)cc3F)cc(O[C@@H](C)CO)c2)cn1` the figure was 172 °C; with `CC(C(=O)O)c1ccc(N2C(=O)C3CCCCC3C2=O)cc1` (centres undefined), 224 to 226 °C.
Consider `Cc1nc2c(OCc3cc(N(C)S(C)(=O)=O)ccc3Cl)cccn2c1Br`, for which the melting point lay within 158 to 162 °C.
